Laboratory results from patent US8609672B2, “Piperazinylpyrimidine analogues as protein kinase inhibitors” (University of the Pacific, priority 2010, dated 2013).

Key:
MALME-3M = assay: NCI-60 SRB growth inhibition: MALME-3M; assay type: cell-based, human; conditions: Melanoma, 48 hours treatment
NCI-H23 = assay: NCI-60 SRB growth inhibition: NCI-H23; assay type: cell-based, human; conditions: NCI-H23, Non-small cell lung cancer; 48 hours treatment
SF-268 = assay: NCI-60 SRB growth inhibition: SF-268; assay type: cell-based, human; conditions: SF-268, CNS cancer; 48 hours treatment
ACHN = assay: NCI-60 SRB growth inhibition: ACHN; assay type: cell-based, human; conditions: Renal cancer, 48 hours treatment; for CC50: Homo sapiens, read-out: LC50 (the source's name)
HS 578T = assay: NCI-60 SRB growth inhibition: HS 578T; assay type: cell-based, human; conditions: Breast cancer, 48 hours treatment; for CC50: Homo sapiens, read-out: LC50 (the source's name)
SK-MEL-2 = assay: NCI-60 SRB growth inhibition: SK-MEL-2; assay type: cell-based, human; conditions: SK-MEL-2, Melanoma; 48 hours treatment
MDA-MB-468 = assay: NCI-60 SRB growth inhibition: MDA-MB-468; assay type: cell-based, human; conditions: MDA-MB-468, Breast cancer, 48 hours treatment; for CC50: Homo sapiens, read-out: LC50 (the source's name)
RXF 393 = assay: NCI-60 SRB growth inhibition: RXF 393; assay type: cell-based, human; conditions: RXF 393, Renal cancer, 48 hours treatment; for CC50: Homo sapiens, read-out: LC50 (the source's name)
KM12 = assay: NCI-60 SRB growth inhibition: KM12; assay type: cell-based, human; conditions: KM12, Colon cancer, 48 hours treatment; for CC50: Homo sapiens, read-out: LC50 (the source's name)
MCF7 = assay: NCI-60 SRB growth inhibition: MCF7; assay type: cell-based, human; conditions: MCF7, Breast cancer; 48 hours treatment
NCI-H322M = assay: NCI-60 SRB growth inhibition: NCI-H322M; assay type: cell-based, human; conditions: Non-small cell lung cancer, 48 hours treatment
U251 = assay: NCI-60 SRB growth inhibition: U251; assay type: cell-based, human; conditions: U251, CNS cancer, 48 hours treatment; for CC50: Homo sapiens, U-251, read-out: LC50 (the source's name)
TK-10 = assay: NCI-60 SRB growth inhibition: TK-10; assay type: cell-based, human; conditions: TK-10, Renal cancer, 48 hours treatment; for CC50: Homo sapiens, read-out: LC50 (the source's name)
CSNK1D = target: T1, CSNK1D (Homo sapiens, UniProt P48730); assay: Kinase binding screening: CSNK1D; conditions: 10 μM compound, read-out: B-POC (binding percentage of control)
T1 construct: purchased Ambit Bioscience (assay service)
T1 sequence (P48730 whole entry): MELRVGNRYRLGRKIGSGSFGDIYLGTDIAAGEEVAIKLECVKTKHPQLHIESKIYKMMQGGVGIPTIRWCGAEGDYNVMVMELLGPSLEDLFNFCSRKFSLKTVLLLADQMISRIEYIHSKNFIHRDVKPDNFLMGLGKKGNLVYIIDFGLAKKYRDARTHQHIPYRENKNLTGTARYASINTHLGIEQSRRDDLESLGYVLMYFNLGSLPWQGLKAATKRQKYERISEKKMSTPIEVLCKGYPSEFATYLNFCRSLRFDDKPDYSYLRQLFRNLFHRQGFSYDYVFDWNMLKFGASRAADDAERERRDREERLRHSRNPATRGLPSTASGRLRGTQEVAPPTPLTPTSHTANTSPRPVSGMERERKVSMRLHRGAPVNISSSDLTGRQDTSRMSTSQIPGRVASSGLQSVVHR
Experimental: Biotinylated kinase ligand was immobilized onto streptavidin coated magnetic beads and washed with blocking buffer. The liganded beads were then incubated with DNA-tagged kinase in the presence of test compound for 1 h at room temperature. Binding reactions were carried out in 20% Seablock, 0.17×PBS, 0.005% Tween 20, 6 mM DTT, in a final volume of 0.04 mL. Beads were then washed with wash buffer (PBS, 0.05% Tween 20), and then incubated with elution buffer (PBS, 0.05% Tween […] non-biotinylated kinase ligand) and eluted. The kinase concentration in the eluate was then measured by quantitative PCR. […] The results of this single dose screening are reported in the form of binding percentage of control (B-POC) which is defined as follows:
[formula] The negative control signal is obtained by the vehicle and corresponds to B-POC=100%. The positive signal control is detected by a binding positive compound and is B-POC 0%. The B-POC results are the average of duplicate measurements. Only interactions with […] were considered significant and thus used for calculating the selectivity scores (Table 1) of the test compounds as follows:
[formula] […] The Kd is then calculated according to the following equation:
[formula] hill slope=−1. A non-linear least square fit with the Levenberg-Marquardt algorithm was implemented to fit the curves (FIG. 3). Kinase binding assays were performed by Ambit Bioscience (San Diego, Calif., USA).
The results of kinase binding assay are shown in Table 1, which includes the B-POC values of 10 μM of compounds 4, 15, and 16 against the most sensitive kinases tested within this binding experiment. […] Kinases within the same subfamily are highlighted. […] Both the B-POC and Kd values are the average of duplicate measurements.
J. et al. Bioorganic and Medicinal Chemistry Letters 2009, 19, 1206-1209; Chao, Q. et al. Journal of Medicinal Chemistry 2009, 52, 7808-7816.). A single dose of 10 μM was chosen to allow for detecting kinases able to bind to the test compounds. In this binding assay, a set of 243 kinases were included. […]

OVCAR-4 = assay: NCI-60 SRB growth inhibition: OVCAR-4; assay type: cell-based, human; conditions: OVCAR-4, Ovarian cancer, 48 hours treatment; for CC50: Homo sapiens, read-out: LC50 (the source's name)
SNB-75 = assay: NCI-60 SRB growth inhibition: SNB-75; assay type: cell-based, human; conditions: SNB-75, CNS cancer, 48 hours treatment; for CC50: Homo sapiens, read-out: LC50 (the source's name)
K-562 = assay: NCI-60 SRB growth inhibition: K-562; assay type: cell-based, human; conditions: K-562, Leukemia, 48 hours treatment; for CC50: Homo sapiens, K562, read-out: LC50 (the source's name)
SK-OV-3 = assay: NCI-60 SRB growth inhibition: SK-OV-3; assay type: cell-based, human; conditions: SK-OV-3, Ovarian cancer; 48 hours treatment

| Compound | TGI (MALME-3M) [µM] | TGI (NCI-H23) [µM] | TGI (SF-268) [µM] | CC50 (ACHN) [µM] | TGI (ACHN) [µM] | TGI (HS 578T) [µM] | CC50 (HS 578T) [µM] | TGI (SK-MEL-2) [µM] | CC50 (MDA-MB-468) [µM] | TGI (MDA-MB-468) [µM] | CC50 (RXF 393) [µM] | TGI (RXF 393) [µM] | CC50 (KM12) [µM] | TGI (KM12) [µM] | TGI (MCF7) [µM] | TGI (NCI-H322M) [µM] | CC50 (U251) [µM] | TGI (U251) [µM] | CC50 (TK-10) [µM] | TGI (TK-10) [µM] | further results |
| --- | --- | --- | --- | --- | --- | --- | --- | --- | --- | --- | --- | --- | --- | --- | --- | --- | --- | --- | --- | --- | --- |
| c1ccc(Cc2cnc(N3CCN(c4ncnc5ccccc45)CC3)nc2)cc1 [Compound 4, 4-(4-(5-benzylpyrimidin-2-yl)piperazin-1-yl)quinazoline] | 33.60 | 30.80 | 57.20 | > 100 | 42.40 | 54.80 | > 100 | 35.80 | > 100 | 2.73 | > 100 | 57.90 | 50.1 | 25.10 | 58.20 | >100 | 54.1 | 24.60 | > 100 | 60.80 | remaining activity at 10 µM (CSNK1D): 26%; CC50 (OVCAR-4): > 100 µM; TGI (OVCAR-4): >100 µM; CC50 (SNB-75): > 100 µM; TGI (SNB-75): 78.20 µM; CC50 (K-562): > 100 µM; TGI (K-562): >100 µM; TGI (SK-OV-3): >100 µM |
| CCc1cnc(N2CCN(C(=O)c3ccc(CNc4ncnc5ccccc45)cc3)CC2)nc1 [Compound 15, (4-(5-ethylpyrimidin-2-yl)piperazin-1-yl)(4-((quinazolin-4-ylamino)methyl)phenyl)methanone] | 42.20 | 33.30 | >100 | > 100 | 82.50 | >100 | > 100 | >100 | > 100 | 2.22 | > 100 | 41.60 | 53.8 | 24.30 | 72.80 | >100 | > 100 | >100 | > 100 | >100 | remaining activity at 10 µM (CSNK1D): 23%; CC50 (OVCAR-4): > 100 µM; TGI (OVCAR-4): 58.80 µM; CC50 (SNB-75): > 100 µM; TGI (SNB-75): 58.20 µM; CC50 (K-562): > 100 µM; TGI (K-562): >100 µM; TGI (SK-OV-3): >100 µM |
| O=C(c1cccc(Nc2ncnc3ccccc23)c1)N1CCN(c2ncc(Cc3ccccc3)cn2)CC1 [Compound 16, (4-(5-benzylpyrimidin-2-yl)piperazin-1-yl)(3-(quinazolin-4-ylamino)phenyl)methanone] | 2.57 | 2.69 | >100 | > 100 | 4.57 | 7.41 | > 100 | 2.69 | > 100 | 3.47 | > 100 | 11.48 | 6.61 | 2.40 | 2.29 | 4.79 | > 100 | 6.61 | 39.8 | 6.17 | remaining activity at 10 µM (CSNK1D): 22%; CC50 (OVCAR-4): 7.59 µM; TGI (OVCAR-4): 1.95 µM; CC50 (SNB-75): > 100 µM; TGI (SNB-75): 5.89 µM; CC50 (K-562): > 100 µM; TGI (K-562): 2.23 µM; TGI (SK-OV-3): 4.47 µM |
